# Data reported in US20110306623A1, “NOVEL COMPOUNDS COMPRISING A 3-(5-ALKOXYPYRIMIDIN-2-YL) PYRIMIDIN-4(3H)-ONE STRUCTURE AND DRUGS THAT COMPRISE SAME” (KOWA COMPANY, LTD., priority 2009, published 2011).
# Tests used:
# human PPAR 2 = biological target: T1, human PPAR 2 (Homo sapiens, UniProt P37231); assay: PPAR activating activity, Gal4-PPAR chimera luciferase transfection assay using COS7 cells; format: cell-based; conditions: relative to Rosiglitazone
# T1 construct: the amino acids 182 to 505 of human PPAR 2; expressed in transfected cells; host or cells: COS7 cells
# T1 sequence (P37231 182-505): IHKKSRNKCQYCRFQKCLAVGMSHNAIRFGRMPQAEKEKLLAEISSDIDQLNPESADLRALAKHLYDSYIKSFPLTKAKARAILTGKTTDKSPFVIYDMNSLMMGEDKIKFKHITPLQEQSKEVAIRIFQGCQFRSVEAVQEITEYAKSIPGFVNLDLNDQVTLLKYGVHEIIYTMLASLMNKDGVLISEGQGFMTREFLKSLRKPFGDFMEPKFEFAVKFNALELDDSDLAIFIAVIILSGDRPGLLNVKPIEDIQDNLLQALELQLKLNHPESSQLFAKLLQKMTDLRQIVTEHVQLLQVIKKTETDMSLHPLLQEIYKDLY
# Procedure: PPAR Activating Activity The agonist activity of the Compound a and the Compound b on PPAR was measured based on the transfection assay using COS7 cells (DS Pharma Biomedical Co., Ltd., Osaka, Japan), which are the cell line derived from the kidney of the African green monkey. COS7 cells were cultured under 5% CO2 concentration, and DMEM medium containing 10% fetal bovine serum, glutamic acid, and antibiotics was used as a medium. As an expression vector, a chimera in which DNA binding domain of Gal4 which is a yeast transcription factor, and ligand binding domain of human PPAR 2 are fused, i.e., a fused product between the amino acids 1 to 147 of Gal4 transcription factor and the amino acids 182 to 505 of human PPAR 2, was used. Furthermore, as a reporter vector, a firefly luciferase containing five copies of Gal4 recognition sequence in the promoter region was used. Plasmid transfection of the cells was performed according to a method which uses jetPEI (trade name, manufactured by Funakoshi Co., Ltd., Tokyo, Japan). […] After that, the luciferase activity and -galactosidase activity in the cell lysis solution were measured. […] The percentage of the luciferase activity of the Compound a or the Compound b (1 to 30 mol/L) was calculated when the luciferase activity of Rosiglitazone (3 to 10 mol/L) is 100% and the luciferase activity in the absence of the Compound a or the Compound b is 0%. […]
# [1] = tested on: angiotensin II-induced blood pressure increase; assay: Inhibitory activity on angiotensin II-induced blood pressure increase; format: in vivo; conditions: male SD rat, FIG. 1
# Procedure: Inhibitory Activity on Angiotensin II-Induced Blood Pressure Increase
# The in vivo angiotensin II antagonist activity of the Compound a and the Compound B was evaluated by following, as an index, the blood pressure increase induced by intravenous injection of angiotensin II.
# A male SD rat (10 to 12-week old) was anesthetized with pentobarbital, and a cannular for measuring blood pressure was inserted into the right femoral artery while a cannular for injecting angiotensin II was inserted into the right jugular vein, the cannulars were then fixed on the back side of the neck as exposed.
# One day after the surgery, the rat was subjected to the test under unanaesthetized, unstrained, and unfasted condition. The artery cannular was connected to a blood pressure transducer, and the blood pressure and heart rate were continuously recorded on a polygraph with an aid of an amplifier. Once the blood pressure and heart rate are stabilized, angiotensin II (0.1 nmol/kg) was administered via the vein cannular. The angiotensin II was repeatedly administered until a stable hypertensive response is obtained. After that, the Compound a (1 mg/kg or 3 mg/kg) or the Compound B (3 mg/kg) was orally administered, and the hypertensive response induced by angiotensin II was observed over time until 24 hours after the administration. […]
smiles,measurement,setting,value
"CCCCc1nc(C)n(-c2ncc(OC)cn2)c(=O)c1Cc1ccc(-c2ccccc2-c2noc(=O)[nH]2)cc1 [Compound b, 3-{4′-{[6-butyl-3-(5-methoxypyrimidin-2-yl)-2-methylpyrimidin-4(3H)-on-5-yl]methyl}biphenyl-2-yl}-1,2,4-oxadiazol-5(4H)-one]","percentage of the luciferase activity (Rosiglitazone = 100%, absence of compound = 0%)",human PPAR 2,24%
same,"effect of inhibiting the angiotensin II-induced blood pressure increase, compared with Compound a 3 mg/kg",[1]; oral 3 mg/kg,substantially the same degree as the administration of the Compound a with dosage of 3 mg/kg
same,"inhibitory action on angiotensin II-induced blood pressure increase, 24 hours after the administration","[1]; oral, Compound a 1 or 3 mg/kg, Compound B 3 mg/kg, 24 hours after administration",its effect was almost completely lost 24 hours after the administration
